# Measurements: ChEMBL document CHEMBL5316329, “Structure-Based Optimization of 2,4,5-Trisubstituted Pyrimidines as Potent HIV-1 Non-Nucleoside Reverse Transcriptase Inhibitors: Exploiting the Tolerant Regions of the Non-Nucleoside Reverse Transcriptase Inhibitors' Binding Pocket” (J Med Chem, 2023)
# What was measured:
# [1] = molecular target: Human immunodeficiency virus type 1 reverse transcriptase (Human immunodeficiency virus 1, UniProt Q72547); assay: Inhibition of wild-type HIV-1 reverse transcriptase assessed as inhibition of biotin-dUTP incorporation
# Cytochrome P450 2C19 = Cytochrome P450 2C19 (Homo sapiens, UniProt P33261); assay: Inhibition of CYP2C19 (unknown origin); format: ADME
# Cytochrome P450 2C19, sequence (P33261 whole entry): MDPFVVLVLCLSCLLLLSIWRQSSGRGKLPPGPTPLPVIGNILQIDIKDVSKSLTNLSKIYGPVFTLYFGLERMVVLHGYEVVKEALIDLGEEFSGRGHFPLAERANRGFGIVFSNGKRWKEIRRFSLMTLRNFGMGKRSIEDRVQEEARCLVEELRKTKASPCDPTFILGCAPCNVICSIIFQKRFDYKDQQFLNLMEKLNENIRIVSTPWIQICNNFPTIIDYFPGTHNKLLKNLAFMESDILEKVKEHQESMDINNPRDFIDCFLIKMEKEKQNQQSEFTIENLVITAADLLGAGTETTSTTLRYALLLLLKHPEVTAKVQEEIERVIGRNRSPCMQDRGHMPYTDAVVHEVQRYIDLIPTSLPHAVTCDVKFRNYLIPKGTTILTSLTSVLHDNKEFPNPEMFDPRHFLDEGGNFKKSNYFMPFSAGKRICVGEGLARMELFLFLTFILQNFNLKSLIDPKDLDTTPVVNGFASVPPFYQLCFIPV
# [2] = Acute toxicity in Kunming mouse assessed as mortality at 2000 mg/kg, po measured after 7 days; format: organism-based; conditions: in vivo, 168 h, time 7 day
# [3] = system: Human immunodeficiency virus 1; assay: Antiviral activity against HIV-1 harboring L100I mutant infected in human MT4 cells assessed as virus-induced cytopathicity treated for 5 days by MTT assay; format: functional, organism-based; conditions: Human immunodeficiency virus 1, MT4, 120 h
# Cytochrome P450 3A4 = Cytochrome P450 3A4 (Homo sapiens, UniProt P08684); assay: Inhibition of CYP3A4 (unknown origin) using midazolam as substrate; format: ADME
# Cytochrome P450 3A4, sequence (P08684 whole entry): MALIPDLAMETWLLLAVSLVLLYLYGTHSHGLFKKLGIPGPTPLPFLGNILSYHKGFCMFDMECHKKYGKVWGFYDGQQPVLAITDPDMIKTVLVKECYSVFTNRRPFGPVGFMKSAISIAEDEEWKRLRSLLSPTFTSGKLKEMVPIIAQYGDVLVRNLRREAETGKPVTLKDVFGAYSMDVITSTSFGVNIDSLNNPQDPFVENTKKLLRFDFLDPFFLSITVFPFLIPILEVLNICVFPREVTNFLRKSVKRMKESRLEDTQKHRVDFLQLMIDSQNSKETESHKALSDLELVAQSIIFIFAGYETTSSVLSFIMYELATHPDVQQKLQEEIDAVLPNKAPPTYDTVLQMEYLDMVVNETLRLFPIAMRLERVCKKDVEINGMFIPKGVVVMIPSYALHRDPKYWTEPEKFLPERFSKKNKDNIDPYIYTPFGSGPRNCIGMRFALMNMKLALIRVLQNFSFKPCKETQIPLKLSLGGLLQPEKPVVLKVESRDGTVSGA
# [4] = system: Human immunodeficiency virus 1; assay: Antiviral activity against HIV-1 harboring K103N mutant infected in human MT4 cells assessed as virus-induced cytopathicity treated for 5 days by MTT assay; format: functional, organism-based; conditions: Human immunodeficiency virus 1, MT4, 120 h
# [5] = system: Human immunodeficiency virus 1; assay: Antiviral activity against HIV-1 harboring K103N/Y181C mutant infected in human MT4 cells assessed as virus-induced cytopathicity treated for 5 days by MTT assay; format: functional, organism-based; conditions: Human immunodeficiency virus 1, MT4, 120 h
# [6] = Oral bioavailability in Sprague-Dawley rat at 10 mg/kg; format: ADME, organism-based; conditions: in vivo
# [7] = Clearance in Sprague-Dawley rat at 2 mg/kg, iv; format: ADME, organism-based; conditions: in vivo
# [8] = Selectivity index, ratio of CC50 for human MT4 cells to EC50 for wild-type HIV-1 IIIB infected in human MT4 cells; format: toxicity, cell-based; conditions: read-out: Selectivity Index
# [9] = Acute toxicity in Kunming mouse assessed as body weight change at 2000 mg/kg, po measured after 7 days; format: organism-based; conditions: in vivo, 168 h, time 7 day
# [10] = Acute toxicity in Kunming mouse assessed as poisoning symptoms at 2000 mg/kg, po measured after 7 days; format: organism-based; conditions: in vivo, 168 h, time 7 day
# [11] = AUC (0 to t) in Sprague-Dawley rat at 2 mg/kg, iv; format: ADME, organism-based; design: dose 2 mg/kg, route iv; conditions: in vivo
# Cytochrome P450 2C9 = Cytochrome P450 2C9 (Homo sapiens, UniProt P11712); assay: Inhibition of CYP2C9 (unknown origin); format: ADME
# Cytochrome P450 2C9, sequence (P11712 whole entry): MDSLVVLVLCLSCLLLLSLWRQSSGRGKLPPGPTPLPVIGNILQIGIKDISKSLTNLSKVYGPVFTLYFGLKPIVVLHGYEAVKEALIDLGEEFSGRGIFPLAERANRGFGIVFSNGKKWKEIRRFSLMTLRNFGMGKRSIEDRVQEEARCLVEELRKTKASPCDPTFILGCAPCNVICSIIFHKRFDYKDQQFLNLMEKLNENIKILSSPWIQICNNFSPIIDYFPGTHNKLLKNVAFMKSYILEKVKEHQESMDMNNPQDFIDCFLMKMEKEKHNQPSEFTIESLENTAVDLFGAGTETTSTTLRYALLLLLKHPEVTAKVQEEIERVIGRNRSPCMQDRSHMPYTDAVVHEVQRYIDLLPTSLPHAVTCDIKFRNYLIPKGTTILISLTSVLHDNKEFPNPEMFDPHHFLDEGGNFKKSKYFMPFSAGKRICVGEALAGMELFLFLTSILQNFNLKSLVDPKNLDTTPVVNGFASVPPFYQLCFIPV
# [12] = AUC (0 to infinity) in Sprague-Dawley rat at 2 mg/kg, iv; format: ADME, organism-based; design: dose 2 mg/kg, route iv; conditions: in vivo
# [13] = AUC (0 to t) in Sprague-Dawley rat at 10 mg/kg, po; format: ADME, organism-based; design: dose 10 mg/kg, route po; conditions: in vivo
# [14] = system: Human immunodeficiency virus 1; assay: Antiviral activity against HIV-1 harboring Y188L mutant infected in human MT4 cells assessed as virus-induced cytopathicity treated for 5 days by MTT assay; format: functional, organism-based; conditions: Human immunodeficiency virus 1, MT4, 120 h
# [15] = Cmax in Sprague-Dawley rat at 10 mg/kg, po; format: ADME, organism-based; design: dose 10 mg/kg, route po; conditions: in vivo
# [16] = system: Human immunodeficiency virus 1; assay: Antiviral activity against NNRTI-resistant HIV-1 RES056 infected in human MT4 cells assessed as virus-induced cytopathicity treated for 5 days by MTT assay; format: functional, organism-based; conditions: Human immunodeficiency virus 1, RES056, MT4, 120 h
# [17] = Cytotoxicity against human MT4 cells assessed as reduction in cell viability treated for 5 days by MTT assay; format: toxicity, cell-based; conditions: time 5 day
# Cytochrome P450 1A2 = molecular target: T1, Cytochrome P450 1A2 (Homo sapiens, UniProt P05177); assay: Inhibition of CYP1A2 (unknown origin); format: ADME
# T1 sequence (P05177 whole entry): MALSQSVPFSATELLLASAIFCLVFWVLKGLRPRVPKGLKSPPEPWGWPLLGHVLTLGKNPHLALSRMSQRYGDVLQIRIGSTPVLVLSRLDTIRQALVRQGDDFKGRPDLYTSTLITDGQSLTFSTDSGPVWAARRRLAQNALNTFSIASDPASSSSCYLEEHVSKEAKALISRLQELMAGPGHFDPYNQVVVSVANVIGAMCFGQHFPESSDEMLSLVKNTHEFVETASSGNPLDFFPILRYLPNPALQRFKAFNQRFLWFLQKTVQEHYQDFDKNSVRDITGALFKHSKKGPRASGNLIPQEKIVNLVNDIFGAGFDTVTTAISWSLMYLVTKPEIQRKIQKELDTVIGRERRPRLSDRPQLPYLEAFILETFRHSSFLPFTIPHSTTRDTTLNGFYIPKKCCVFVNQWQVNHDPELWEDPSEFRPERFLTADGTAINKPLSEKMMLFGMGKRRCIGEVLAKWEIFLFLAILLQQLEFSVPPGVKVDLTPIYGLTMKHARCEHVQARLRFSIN
# [18] = system: Human immunodeficiency virus 1; assay: Antiviral activity against wild-type HIV-1 IIIB infected in human MT4 cells assessed as virus-induced cytopathicity treated for 5 days by MTT assay; format: functional, organism-based; conditions: Human immunodeficiency virus 1, IIIB, MT4, 120 h
# [19] = Half life in Sprague-Dawley rat at 2 mg/kg, iv; format: ADME, organism-based; conditions: in vivo
# [20] = Selectivity index, ratio of CC50 for human MT4 cells to EC50 for NNRTI-resistant HIV-1 RES056 infected in human MT4 cells; format: toxicity, cell-based; conditions: read-out: Selectivity Index
# [21] = system: Human immunodeficiency virus 1; assay: Antiviral activity against HIV-1 harboring Y181C mutant infected in human MT4 cells assessed as virus-induced cytopathicity treated for 5 days by MTT assay; format: functional, organism-based; conditions: Human immunodeficiency virus 1, MT4, 120 h
# [22] = Tmax in Sprague-Dawley rat at 10 mg/kg, po; format: ADME, organism-based; conditions: in vivo
# [23] = system: Human immunodeficiency virus 1; assay: Antiviral activity against HIV-1 E138K mutant infected in human MT4 cells assessed as virus-induced cytopathicity treated for 5 days by MTT assay; format: functional, organism-based; conditions: Human immunodeficiency virus 1, MT4, 120 h
# [24] = Cmax in Sprague-Dawley rat at 2 mg/kg, iv; format: ADME, organism-based; design: dose 2 mg/kg, route iv; conditions: in vivo
# [25] = system: Human immunodeficiency virus 1; assay: Antiviral activity against HIV-1 F227L/V106A mutant infected in human MT4 cells assessed as virus-induced cytopathicity treated for 5 days by MTT assay; format: functional, organism-based; conditions: Human immunodeficiency virus 1, MT4, 120 h
# [26] = Half life in Sprague-Dawley rat at 10 mg/kg, po; format: ADME, organism-based; conditions: in vivo
# Cytochrome P450 2D6 = Cytochrome P450 2D6 (Homo sapiens, UniProt P10635); assay: Inhibition of CYP2D6 (unknown origin); format: ADME
# Cytochrome P450 2D6, sequence (P10635 whole entry): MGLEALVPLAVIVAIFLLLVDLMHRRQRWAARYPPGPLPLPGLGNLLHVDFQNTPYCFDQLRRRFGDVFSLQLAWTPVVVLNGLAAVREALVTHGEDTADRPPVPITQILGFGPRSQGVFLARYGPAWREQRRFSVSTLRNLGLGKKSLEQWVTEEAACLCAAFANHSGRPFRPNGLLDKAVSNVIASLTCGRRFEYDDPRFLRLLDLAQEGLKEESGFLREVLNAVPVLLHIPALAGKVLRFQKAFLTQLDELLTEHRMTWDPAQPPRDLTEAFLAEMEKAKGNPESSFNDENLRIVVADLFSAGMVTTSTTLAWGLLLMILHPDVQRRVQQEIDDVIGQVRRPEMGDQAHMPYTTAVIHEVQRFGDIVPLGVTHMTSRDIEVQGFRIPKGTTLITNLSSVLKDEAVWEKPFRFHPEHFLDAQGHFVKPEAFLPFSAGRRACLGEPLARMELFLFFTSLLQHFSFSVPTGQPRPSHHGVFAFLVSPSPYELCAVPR
# [27] = Tmax in Sprague-Dawley rat at 2 mg/kg, iv; format: ADME, organism-based; conditions: in vivo
# [28] = AUC (0 to infinity) in Sprague-Dawley rat at 10 mg/kg, po; format: ADME, organism-based; design: dose 10 mg/kg, route po; conditions: in vivo
structure (smiles),measurement,setting,value
Cc1cc(/C=C/C#N)cc(C)c1Cc1nc(NC2CCN(Cc3ccc(C(N)=O)cc3)CC2)ncc1-c1cncnc1,EC50,[1],4.9 nM
same,IC50,[1],121 nM
same,IC50,Cytochrome P450 2C19,> 50000 nM
same,Activity,[2],Non-Toxic
same,EC50,[3]; read-out: EC50,3.43 nM
same,EC50,[3]; read-out: pEC50 (converted),3.47 nM
same,IC50,Cytochrome P450 3A4,10900 nM
same,EC50,[4]; read-out: EC50,4.77 nM
same,EC50,[4]; read-out: pEC50 (converted),4.79 nM
same,EC50,[5],10 nM
same,bioavailability,[6],31.8%
same,clearance,[7],82.7 mL/min/kg
same,selectivity ratio,[8],4630
same,Activity,[9],Non-Toxic
same,Activity,[10],Non-Toxic
same,AUC(0-t),[11],400 ng·h/mL
same,IC50,Cytochrome P450 2C9,18900 nM
same,AUC(0-inf),[12],403 ng·h/mL
same,AUC(0-t),[13],654 ng·h/mL
same,EC50,[14]; read-out: EC50,15.3 nM
same,EC50,[14]; read-out: pEC50 (converted),15.5 nM
same,Cmax,[15],252 ng/mL
same,EC50,[16],10.1 nM
same,CC50 at 120 h,[17],22800 nM
same,IC50,Cytochrome P450 1A2,> 50000 nM
same,EC50,[18],4.95 nM
same,half-life,[19],1.33 h
same,selectivity ratio,[20],2270
same,EC50,[21]; read-out: EC50,5.88 nM
same,EC50,[21]; read-out: pEC50 (converted),5.89 nM
same,Tmax,[22],2 h
same,EC50,[23]; read-out: EC50,9.49 nM
same,EC50,[23]; read-out: pEC50 (converted),9.55 nM
same,Cmax,[24],587 ng/mL
same,EC50,[25]; read-out: EC50,11.8 nM
same,EC50,[25]; read-out: pEC50 (converted),12 nM
same,half-life,[26],1.2 h
same,IC50,Cytochrome P450 2D6,42500 nM
same,Tmax,[27],1.98 min
same,AUC(0-inf),[28],642 ng·h/mL
